Results reported in ChEMBL document CHEMBL1201862, “PubChem BioAssay data set” (2004).
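Compound exposure: 48 hours, 5 concentrations, 96-well plates. Abbreviation: GI50, concentration required for 50% inhibition of growth.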 Calls of active or inactive are those of the source. No stated cut-off is given here; in the data, active = GI50 up to about 1.1 µM and inactive = higher.

Tests used:
Experiment in all cases: DTP human tumour cell line panel, 48 h
SF-295 = tested on: SF-295
NCI-H522 = tested on: NCI-H522
A549 = tested on: A549
NCI/ADR-RES = tested on: NCI/ADR-RES
UACC-257 = tested on: UACC-257
NCI-H226 = tested on: NCI-H226
TK-10 = tested on: TK-10
SK-MEL-2 = tested on: SK-MEL-2
OVCAR-5 = tested on: OVCAR-5
SK-MEL-5 = tested on: SK-MEL-5
MOLT-4 = tested on: MOLT-4
DU-145 = tested on: DU-145
786-0 = tested on: 786-0
IGROV-1 = tested on: IGROV-1
NCI-H460 = tested on: NCI-H460
COLO 205 = tested on: COLO 205
BT-549 = tested on: BT-549
CCRF-CEM = tested on: CCRF-CEM
LOX IMVI = tested on: LOX IMVI
SF-268 = tested on: SF-268
MDA-N = tested on: MDA-N
SNB-19 = tested on: SNB-19
SNB-75 = tested on: SNB-75
MDA-MB-435 = tested on: MDA-MB-435
PC-3 = tested on: PC-3
SN12C = tested on: SN12C
SF-539 = tested on: SF-539
OVCAR-3 = tested on: OVCAR-3
OVCAR-8 = tested on: OVCAR-8
K562 = tested on: K562
MCF7 = tested on: MCF7
RPMI-8226 = tested on: RPMI-8226
KM12 = tested on: KM12
HCC 2998 = tested on: HCC 2998
HL-60 = tested on: HL-60
Malme-3M = tested on: Malme-3M
CAKI-1 = tested on: CAKI-1
SW-620 = tested on: SW-620
HCT-15 = tested on: HCT-15
MDA-MB-231 = tested on: MDA-MB-231
RXF 393 = tested on: RXF 393
A498 = tested on: A498
M14 = tested on: M14
OVCAR-4 = tested on: OVCAR-4
U-251 = tested on: U-251
T47D = tested on: T47D
UACC-62 = tested on: UACC-62
ACHN = tested on: ACHN
SR = tested on: SR
Hs-578T = tested on: Hs-578T
HOP-92 = tested on: HOP-92
SK-MEL-28 = tested on: SK-MEL-28
EKVX = tested on: EKVX

CC1=C(C(=O)N[C@@H](CC(C)C)C(=O)O)N2C(=O)[C@@H](NC(=O)C(N)c3ccccc3)[C@H]2SC1 (stereo partly drawn)
GI50 (SF-295): > 100 µM (inactive)
GI50 (NCI-H522): > 100 µM (inactive)
GI50 (A549): > 100 µM (inactive)
GI50 (NCI/ADR-RES): > 100 µM (inactive)
GI50 (UACC-257): > 100 µM (inactive)
GI50 (NCI-H226): 60.4 µM (inactive)
GI50 (TK-10): > 100 µM (inactive)
GI50 (SK-MEL-2): > 100 µM (inactive)
GI50 (OVCAR-5): > 100 µM (inactive)
GI50 (SK-MEL-5): > 100 µM (inactive)
GI50 (MOLT-4): > 100 µM (inactive)
GI50 (DU-145): > 100 µM (inactive)
GI50 (786-0): > 100 µM (inactive)
GI50 (IGROV-1): > 100 µM (inactive)
GI50 (NCI-H460): > 100 µM (inactive)
GI50 (COLO 205): > 100 µM (inactive)
GI50 (BT-549): > 100 µM (inactive)
GI50 (CCRF-CEM): > 100 µM (inactive)
GI50 (LOX IMVI): > 100 µM (inactive)
GI50 (SF-268): > 100 µM (inactive)
GI50 (MDA-N): > 100 µM (inactive)
GI50 (SNB-19): > 100 µM (inactive)
GI50 (SNB-75): > 100 µM (inactive)
GI50 (MDA-MB-435): > 100 µM (inactive)
GI50 (PC-3): > 100 µM (inactive)
GI50 (SN12C): > 100 µM (inactive)
GI50 (SF-539): > 100 µM (inactive)
GI50 (OVCAR-3): > 100 µM (inactive)
GI50 (OVCAR-8): > 100 µM (inactive)
GI50 (K562): > 100 µM (inactive)
GI50 (MCF7): > 100 µM (inactive)
GI50 (RPMI-8226): > 100 µM (inactive)
GI50 (KM12): > 100 µM (inactive)
GI50 (HCC 2998): > 100 µM (inactive)
GI50 (HL-60): > 100 µM (inactive)
GI50 (Malme-3M): > 100 µM (inactive)
GI50 (CAKI-1): > 100 µM (inactive)
GI50 (SW-620): > 100 µM (inactive)
GI50 (HCT-15): > 100 µM
GI50 (MDA-MB-231): > 100 µM (inactive)
GI50 (RXF 393): > 100 µM (inactive)
GI50 (A498): > 100 µM (inactive)
GI50 (M14): > 100 µM (inactive)
GI50 (OVCAR-4): > 100 µM (inactive)
GI50 (U-251): > 100 µM (inactive)
GI50 (T47D): > 100 µM (inactive)
GI50 (UACC-62): 79.3 µM (inactive)
GI50 (ACHN): > 100 µM (inactive)
GI50 (SR): > 100 µM (inactive)
GI50 (Hs-578T): > 100 µM (inactive)
GI50 (HOP-92): > 100 µM (inactive)
GI50 (SK-MEL-28): > 100 µM (inactive)
GI50 (EKVX): > 100 µM (inactive)
